Laboratory results published in paper PMC6962712, “Glucose-6-Phosphate Upregulates Txnip Expression by Interacting With MondoA” (Frontiers in Molecular Biosciences, 2020).

Biological target: T1, MondoA/Mlx (Homo sapiens, UniProt Q9HAP2)
T1 construct: gene MLXIP; endogenous full-length MondoA/Mlx heterodimer in nuclear extract of Bcap37 cells, not purified; with Max-like protein X
T1 sequence (Q9HAP2 2-919): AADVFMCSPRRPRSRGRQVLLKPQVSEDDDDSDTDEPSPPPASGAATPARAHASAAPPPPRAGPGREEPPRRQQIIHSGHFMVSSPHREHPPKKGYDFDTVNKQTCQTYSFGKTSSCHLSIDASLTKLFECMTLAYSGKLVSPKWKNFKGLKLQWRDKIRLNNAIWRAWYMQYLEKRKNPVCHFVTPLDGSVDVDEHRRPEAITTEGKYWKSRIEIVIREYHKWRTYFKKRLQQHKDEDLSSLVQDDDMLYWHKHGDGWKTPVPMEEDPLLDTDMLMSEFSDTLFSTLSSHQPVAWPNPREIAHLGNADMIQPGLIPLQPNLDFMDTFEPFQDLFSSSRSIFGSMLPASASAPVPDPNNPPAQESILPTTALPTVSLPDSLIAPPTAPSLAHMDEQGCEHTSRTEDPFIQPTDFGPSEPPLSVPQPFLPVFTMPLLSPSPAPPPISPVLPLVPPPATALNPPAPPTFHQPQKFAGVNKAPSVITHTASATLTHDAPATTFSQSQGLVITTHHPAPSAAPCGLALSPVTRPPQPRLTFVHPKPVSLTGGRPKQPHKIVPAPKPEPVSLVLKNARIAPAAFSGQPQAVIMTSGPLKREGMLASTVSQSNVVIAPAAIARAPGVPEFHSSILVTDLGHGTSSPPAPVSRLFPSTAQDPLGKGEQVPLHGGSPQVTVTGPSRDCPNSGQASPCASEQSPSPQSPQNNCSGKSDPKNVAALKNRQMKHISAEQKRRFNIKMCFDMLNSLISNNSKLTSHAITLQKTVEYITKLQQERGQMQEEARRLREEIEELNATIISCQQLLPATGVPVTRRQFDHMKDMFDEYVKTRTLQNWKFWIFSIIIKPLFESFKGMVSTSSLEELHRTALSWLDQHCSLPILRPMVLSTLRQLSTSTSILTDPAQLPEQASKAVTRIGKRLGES
T1 sequence (Q9UH92 1-298 partner): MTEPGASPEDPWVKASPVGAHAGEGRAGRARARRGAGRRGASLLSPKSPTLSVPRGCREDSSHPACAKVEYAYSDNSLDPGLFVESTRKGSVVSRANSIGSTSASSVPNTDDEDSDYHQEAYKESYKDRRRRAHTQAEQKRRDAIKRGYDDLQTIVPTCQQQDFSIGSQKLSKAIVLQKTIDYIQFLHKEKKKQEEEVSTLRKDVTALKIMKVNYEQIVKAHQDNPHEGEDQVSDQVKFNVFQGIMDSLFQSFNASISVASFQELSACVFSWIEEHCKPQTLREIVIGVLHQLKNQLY
Assay: EMSA, biotinylated Txnip ChoRE probe
Type: biochemical
Settings: Bcap37 nuclear extract; G6PNa2 added in vitro (e.g. 0.05 and 0.25 mM); activator of promoter binding; indirect read-out, not a direct binding test

O=P(O)(O)OC[C@H]1OC(O)[C@H](O)[C@@H](O)[C@@H]1O (stereo partly shown) [G6PNa2]
EMSA, biotinylated Txnip ChoRE probe: binding of MondoA to the promoter probe was significantly promoted by the activation of G6PNa2
